Laboratory results reported in PubChem BioAssay AID1963439 (Molecular Pharmacology Branch, DTP, NCI, 2024).
“And” between values parts separate entries of the source, which are not always exact repeats. Equal values may be shown once.

Tested on: NCI-H196 complex spheroids with HUVEC/MSC, growth % T/C
Experiment: Anticancer human tumor NCI-H196 cell line growth inhibition [Asc];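 note: spheroids exposed to compound for 7 days before measurement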;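 for viability, T/C: 100% = DMSO vehicle control wells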
Conditions: for viability, T/C: stronger effect = lower value
Description: Multicellular complex tumor spheroid response to apoptosis pathway targeting inhibitors Alrizomadlin, Pelcitoclax, and Dasminapant in combination with a variety of drugs and investigational agents in selected tumor cell lines
The MDM2 inhibitor alrizomadlin, the Bcl-2/Bcl-xL inhibitor pelcitoclax, and the IAPs inhibitor dasminapant were evaluated both individually and in combination with standard of care and investigational anticancer small molecules within a complex spheroid model of solid tumors. . Complex spheroids include a stromal component modeled by human endothelial cells (HUVEC) and fibroblasts modeled by human mesenchymal stem cells (MSCs). The concentration ranges selected for each drug and investigational agent were based upon clinically achievable concentrations if the clinical Cmax of the agent was known.
Compounds. The drugs and investigational agents: alrizomadlin (APG-115; NSC831270), pelcitoclax (APG-1252; NSC835773), dasminapant (APG-1387;NSC834197), TAK-243 (NSC785004), copanlisib (NSC809693), olaparib (NSC753686), talazoparib (NSC767125), cobimetinib (NSC 768068), eltanexor (KPT-8602, NSC 794443), abemaciclib (NSC 768073), sotorasib (NSC818433), adagrasib (NSC 831453), MRTX-1133 (NSC 836407), Iadademestat (ORY1001, NSC 806812), and RMC-4630 (NSC839698), were obtained from the NCI Developmental Therapeutics Program Chemical Repository. The FDA-approved anticancer drug set is available from the Developmental Therapeutics Program at https://dtp.cancer.gov/organization/dscb/obtaining/available plates.htm. […] The stock solutions were prepared in dimethyl sulfoxide (DMSO, Sigma-Aldrich, St. Louis, MO, cat. D2650) at 800-fold the tested concentration and stored at -70 degrees C prior to their use. All drugs and investigational agents were tested over a range starting from a high concentration at or near the clinical Cmax and decreasing in half-log increments. If the clinical Cmax for an agent had not been determined, the highest concentration tested was 10 microM.
The patient-derived cancer (PDC) cell lines include five colon adenocarcinomas: 186277-243-T-J2-PDC, 616215-338-R-J1-PDC, 439559-082-T-J2-PDC, 463943-066-T-J2-PDC, and 519858-162-T-J1-PDC; three pancreatic carcinomas: 323965-272-R-J2-PDC, 521955-158-R6-J3-PDC, and 521955-158-R2-J5-PDC; two uterine sarcomas: 327498-152-R-J2-PDC and 993429-296-R-J1-PDC; two rhabdomyosarcomas: 755483-174-R-J1-PDC and 772245-204-R-J1-PDC; two soft tissue sarcomas: 126254-015-R-J1-PDC and 494315-158-R-J1-PDC; two malignant fibrous histiocytomas: 317291-083-R-J1-PDC and 596521-263-R-J1-PDC; two breast carcinomas: 171881-019-R-J1-PDC and 885512-296-R-J2-PDC; and one ovarian carcinoma: 6556581-035-R-J-PDC were obtained from the NCI PDMR, (https://pdmr.cancer.gov). The established cell lines HSSY-2 synovial sarcoma (RRID:CVCL 8719), SYO-1 synovial sarcoma (RRID:CVCL_7146), MPNST malignant peripheral neural sheath tumor were obtained from the Sloan Kettering Institute. The following established cell lines were purchased from the American Type Culture Collection (ATCC, Manassas, VA), Sor the received from the NCI repository:, PANC-1 pancreatic carcinoma (CRL-1469, RRID:CVCL_0480), OVCAR-5 ovarian carcinoma (RRID:CVCL_1628), OVCAR-8 ovarian carcinoma (RRID:CVCL_1629), , MCF-7 breast carcinoma (CRL-12584, RRID:CVCL_0031), MDA-MB-231 breast carcinoma (CRL-12532, RRID:CVCL_0062), NCI-H1876 small cell lung carcinoma (CRL-5902, RRID:CVCL_1503), NCI-H510A small cell lung carcinoma (HTB-184, RRID:CVCL_1565), NCI-H1417 (CRL-5869, RRID:CVCL_1469), and NCI-H196 small cell lung carcinoma (CRL-5823, RRID:CVCL_1509). Dr. Peter Houghton (Greehey Children's Cancer Research Institute, University of Texas Health Science Center, San Antonio, TX) provided Rh-18 rhabdomyosarcoma (RRID:CVCL_1659). Pooled donor human umbilical vein endothelial cells (HUVEC, Lonza, cat. CC-2519) and human mesenchymal stem cells (hMSC, Lonza, cat. PT-2501) were purchased from Lonza (Walkersville, MD).
Cell Culture. […]

[1] = curve of first compound, second compound 0.1 µM
[2] = curve of first compound, second compound 0.316 µM
[3] = curve of first compound, second compound 1 µM

## CCN1C(C(=O)NC23CCC(C(=O)O)(CC2)CC3)C(c2cccc(Cl)c2F)C2(C(=O)Nc3cc(Cl)ccc32)C12CCCCC2 (configuration not stated) + Cc1c(S(C)(=O)=O)c(-c2cc(F)cc(N3CCN(c4ccc(NS(=O)(=O)c5ccc(NC(CCN6CCC(C(=O)OCCCP(=O)(O)O)CC6)CSc6ccccc6)c(S(=O)(=O)C(F)(F)F)c5)cc4)CC3)c2)c(-c2ccc(Cl)cc2)n1C(C)C
[1]
  IC50: > 3000 nM
[2]
  IC50: > 3000 nM
[3]
  IC50: > 3000 nM
Curve of first compound, second compound 3.16 µM
  IC50: 2850 nM
Curve of first compound, second compound 10 µM
  IC50: 1660 nM
Second compound 0.1 µM, first compound 0.00949 µM
  viability, T/C: 89.3%
Second compound 0.1 µM, first compound 0.03 µM
  viability, T/C: 104%
Second compound 0.1 µM, first compound 0.0949 µM
  viability, T/C: 91.2%
Second compound 0.1 µM, first compound 0.3 µM
  viability, T/C: 91.5%
Second compound 0.1 µM, first compound 0.949 µM
  viability, T/C: 92.2%
Second compound 0.1 µM, first compound 3 µM
  viability, T/C: 86.4%
Second compound 0.316 µM, first compound 0.00949 µM
  viability, T/C: 89.6%
Second compound 0.316 µM, first compound 0.03 µM
  viability, T/C: 89.7%
Second compound 0.316 µM, first compound 0.0949 µM
  viability, T/C: 95.5%
Second compound 0.316 µM, first compound 0.3 µM
  viability, T/C: 85.3%
Second compound 0.316 µM, first compound 0.949 µM
  viability, T/C: 88.3%
Second compound 0.316 µM, first compound 3 µM
  viability, T/C: 69.4%
Second compound 1 µM, first compound 0.00949 µM
  viability, T/C: 84.3%
Second compound 1 µM, first compound 0.03 µM
  viability, T/C: 83%
Second compound 1 µM, first compound 0.0949 µM
  viability, T/C: 87.5%
Second compound 1 µM, first compound 0.3 µM
  viability, T/C: 80.8%
Second compound 1 µM, first compound 0.949 µM
  viability, T/C: 78.9%
Second compound 1 µM, first compound 3 µM
  viability, T/C: 62.6%
Second compound 3.16 µM, first compound 0.00949 µM
  viability, T/C: 77.9%
Second compound 3.16 µM, first compound 0.03 µM
  viability, T/C: 82.5%
Second compound 3.16 µM, first compound 0.0949 µM
  viability, T/C: 72.5%
Second compound 3.16 µM, first compound 0.3 µM
  viability, T/C: 72.3%
Second compound 3.16 µM, first compound 0.949 µM
  viability, T/C: 66.2%
Second compound 3.16 µM, first compound 3 µM
  viability, T/C: 48.7%
Second compound 10 µM, first compound 0.00949 µM
  viability, T/C: 70.2%
Second compound 10 µM, first compound 0.03 µM
  viability, T/C: 79.1%
Second compound 10 µM, first compound 0.0949 µM
  viability, T/C: 70.1%
Second compound 10 µM, first compound 0.3 µM
  viability, T/C: 73.2%
Second compound 10 µM, first compound 0.949 µM
  viability, T/C: 59%
Second compound 10 µM, first compound 3 µM
  viability, T/C: 38.6%

## C=C(F)C(=O)N1CCN(c2nc(OCC3CCCN3C)nc3c2CCN(c2cccc4cccc(Cl)c24)C3)CC1CC#N (configuration not stated) + CNC(C)C(=O)NC1CN(S(=O)(=O)c2cccc(S(=O)(=O)N3CCC4CCC(C(=O)NC(c5ccccc5)c5ccccc5)N4C(=O)C(NC(=O)C(C)NC)C3)c2)CCC2CCC(C(=O)NC(c3ccccc3)c3ccccc3)N2C1=O
Curve of first compound, second compound 0.01 µM
  IC50: < 31.6 nM
Curve of first compound, second compound 0.0316 µM
  IC50: < 31.6 nM
[1]
  IC50: < 31.6 nM
[2]
  IC50: < 31.6 nM
[3]
  IC50: < 31.6 nM
Second compound 0.01 µM, first compound 0.0316 µM
  viability, T/C: 7.36%
Second compound 0.01 µM, first compound 0.1 µM
  viability, T/C: 8.05%
Second compound 0.01 µM, first compound 0.316 µM
  viability, T/C: 5.8%
Second compound 0.01 µM, first compound 1 µM
  viability, T/C: 3.58%
Second compound 0.01 µM, first compound 3.16 µM
  viability, T/C: 0.83%
Second compound 0.01 µM, first compound 10 µM
  viability, T/C: 0.19%
Second compound 0.0316 µM, first compound 0.0316 µM
  viability, T/C: 3.17%
Second compound 0.0316 µM, first compound 0.1 µM
  viability, T/C: 4.55%
Second compound 0.0316 µM, first compound 0.316 µM
  viability, T/C: 4.1%
Second compound 0.0316 µM, first compound 1 µM
  viability, T/C: 3.88%
Second compound 0.0316 µM, first compound 3.16 µM
  viability, T/C: 0.38%
Second compound 0.0316 µM, first compound 10 µM
  viability, T/C: 0.16%
Second compound 0.1 µM, first compound 0.0316 µM
  viability, T/C: 4.2%
Second compound 0.1 µM, first compound 0.1 µM
  viability, T/C: 5.22%
Second compound 0.1 µM, first compound 0.316 µM
  viability, T/C: 5.23%
Second compound 0.1 µM, first compound 1 µM
  viability, T/C: 3.23%
Second compound 0.1 µM, first compound 3.16 µM
  viability, T/C: 0.27%
Second compound 0.1 µM, first compound 10 µM
  viability, T/C: 0.18%
Second compound 0.316 µM, first compound 0.0316 µM
  viability, T/C: 4.24%
Second compound 0.316 µM, first compound 0.1 µM
  viability, T/C: 3.28%
Second compound 0.316 µM, first compound 0.316 µM
  viability, T/C: 1.71%
Second compound 0.316 µM, first compound 1 µM
  viability, T/C: 2.27%
Second compound 0.316 µM, first compound 3.16 µM
  viability, T/C: 2.27%
Second compound 0.316 µM, first compound 10 µM
  viability, T/C: 0.18%
Second compound 1 µM, first compound 0.0316 µM
  viability, T/C: 3.34%
Second compound 1 µM, first compound 0.1 µM
  viability, T/C: 3.4%
Second compound 1 µM, first compound 0.316 µM
  viability, T/C: 2.52%
Second compound 1 µM, first compound 1 µM
  viability, T/C: 1.53%
Second compound 1 µM, first compound 3.16 µM
  viability, T/C: 0.35%
Second compound 1 µM, first compound 10 µM
  viability, T/C: 0.24%

## CCN1CCN(Cc2ccc(Nc3ncc(F)c(-c4cc(F)c5nc(C)n(C(C)C)c5c4)n3)nc2)CC1
Compound 0.00316 µM
  viability, T/C: 106% and 104% and 96.7%
Compound 0.01 µM
  viability, T/C: 107% and 101% and 105%
Compound 0.0316 µM
  viability, T/C: 112% and 95.9% and 98.3%
Compound 0.1 µM
  viability, T/C: 103% and 110% and 106%
Compound 0.316 µM
  viability, T/C: 108% and 113% and 112%
Compound 1 µM
  viability, T/C: 120% and 116% and 119%
Curve of compound
  IC50: > 1000 nM
